The values that follow come from US5658880A, “Sialic acid/fucose based medicaments” (Glycomed Incorporated, priority 1994, dated 1997).

Assay [1] deals with P-selectin. Briefly: ELISA: inhibition of P-selectin-IgG chimera binding to 2,3 sLe^x glycolipid. Particulars: inhibition of binding to 2,3 sLex glycolipid. Also noted: species or system human. The text has this:
(§1) An ELISA assay is preferably used that employs recombinant fusion proteins composed of extracellular portions of the human selectins joined to human immunoglobulin heavy chain CH3, CH2, and hinge regions. See, for example, Walz et al., Science (1990) 250:1132; Aruffo et al., Cell (1991) 67:35; Aruffo et al., Proc. Natl. Acad. Sci. USA. (1992) 89:2292. The assay is well known in the art, and generally consists of the following three steps:
(§2) I. 2,3 sLe^x glycolipid (25 picomole/well) was transferred into microtiter wells as solutions and then evaporated off. Excess, which remained unattached, was washed off with water. The wells were then blocked with 5% BSA at room temperature for an hour and then washed with PBS containing 1 mM calcium.
(§3) II. Preparation of "multivalent" receptor of the Selectin-lgG chimera was carried out by combining the respective chimera (1 μg/mL) with biotin labelled goat F(ab')2 anti-human IgG (Fc specific) and streptavidin-alkaline phosphatase diluted 1:1000 in 1% BSA-PBS (1 mM calcium) and incubating at 37° C. for 15 min. This allowed the soluble multivalent receptor complex to form. III. Potential inhibitors such as the compounds of formula I or II were allowed to react with the soluble receptor at 37° C. for 45 min. This test assumes that optimal binding, between the soluble phase receptor complex and the inhibitor (non natural ligand), would have occurred within this time frame. This solution was then placed in the microtiter wells that were prepared in step I. The plate was incubated at 37° C. for 45 minutes to allow the soluble receptor to bind to its natural ligand. In the presence of a strong inhibitor only a few receptors should be free to bind to the microtiter plate coated with the natural ligand.
(§4) The positive control is the signal produced by the soluble receptor when it is allowed to react with 2,3 sLe^x glycolipid in the microtiter wells in the absence of any inhibitor. This positive control was considered 100% binding. The signal produced by the receptor that had been previously treated with an inhibitor (recorded as O.D.), was divided by the signal produced by the positive control and multiplied by 100 to calculate the % receptor bound to the well in the presence of the inhibitor. The reciprocal of this number is the % inhibition.
(§5) An ELISA assay was employed that uses recombinant fusion proteins composed of extracellular portions of the human selectins joined to human immunoglobulin heavy chain CH3, CH2, and hinge regions. See, for example, Walz et al., Science (1990) 250:1132; Aruffo et al., Cell (1991) 67:35; Aruffo et al., Proc. Natl. Acad. Sci. USA (1992) 89:2292. The assay is well known in the art, and generally consists of the following three steps:
(§6) II. Preparation of "multivalent" receptor of the Selectin-IgG chimera was carried out by combining the respective chimera 1 μg/ml) with biotin labelled goat F(ab')2 anti-human IgG (Fc specific) and streptavidin-alkaline phosphatase diluted 1:1000 in 1% BSA-PBS (1 mM calcium) and incubating at 37° C. for 15 min. This allowed the soluble multivalent receptor complex to form.
(§7) III. Potential inhibitors such as compounds of formula I or II were allowed to react with the soluble receptor at 37° C. for 45 min. This test assumes that optimal binding, between the soluble phase receptor complex and the inhibitor (non natural ligand), would have occurred within this time frame. This solution was then placed in the microtiter wells that were prepared in step I. The plate was incubated at 37° C. for 45 minutes to allow the soluble receptor to bind to its natural ligand. In the presence of a strong inhibitor only a few receptors should be free to bind to the microtiter plate coated with the natural ligand.
(§8) The positive control is the signal produced by the soluble receptor when it is allowed to react with 2,3 sLe^x glycolipid in the microtiter wells in the absence of any inhibitor. This was considered 100% binding. […]
Background: In an ELISA, binding on a coated surface is turned into a signal by an enzyme label.

For assay [2], the system named is neutrophil migration into the peritoneum. As to the kind of experiment: Murine thioglycollate induced peritonitis: neutrophil migration to the peritoneal cavity. Type of assay: in vivo, mouse (Swiss Webster). Particulars: mice, tail vein injection, 3 h after thioglycollate, FIG. 7(a) and (b). The source says: The efficaciousness of 7 and 10 was shown using a murine thioglycollate induced peritonitis model. The assay materials and methods are known in the art, or are generally described by Lewinsohn, D. et al., J. Immun., 138:4313-4321 (1987), or Watson, S. et al., Nature 349:164-166 (1991). This assay measures the ability of the compounds to inhibit neutrophil migration to the peritoneal cavity, the migration being initiated by the presence of thioglycollate in the peritoneal cavity. Thioglycollate is a known and effective inflammatory agent that causes neutrophil migration into the mouse peritoneum when it is administered intraperitoneally. Lewinsohn, D. et al., J. Immun. (1987) 138:4313-4321. Briefly, female Swiss Webster mice weighing about 25 grams were injected in the tail vein with 200 μl of phosphate buffered saline (PBS) with or without the appropriate compound. The pH of the solutions was adjusted to neutrality by the addition of either NaOH or HCL and sterilized by filtration through a 0.2 μ filter. Immediately following injection with the appropriate compound or PBS, the mice were injected intraperitoneally with 1 ml of thioglycollate medium prepared as described by the manufacturer, BBL. Three hours following injection of the thioglycollate solution the mice were sacrificed by CO2 asphyxiation, and the number of cells in the peritoneum removed by lavage with 5 ml of heparinized (5 U/ml) 0.9% sodium chloride solution containing 0.1% bovine serum albumin. Cell number was determined using a Coulter Counter. The cells were prepared for counting by diluting the lavage fluid with 1:50 of a commercial physiological isotonic solution, Isoton II, and the cells lysed by adding S/P Lysing and Hemoglobin Reagent (1:100 final dilution). Cell nuclei were counted in a sized window with lower and upper limits set at 3.9 and 5.7 μm, respectively.

Another assay relates to L-selectin. Briefly: ELISA: inhibition of L-selectin-IgG chimera binding to 2,3 sLe^x glycolipid. Also noted: species or system human. The following applies: for IC50: inhibition of binding to 2,3 sLex glycolipid.
Description: as §1, §2, §3, §4, §5, §6, §7, §8

The next assay deals with E-selectin. Briefly: ELISA: inhibition of E-selectin-IgG chimera binding to 2,3 sLe^x glycolipid. Also noted: species or system human. Particulars: inhibition of binding to 2,3 sLex glycolipid.
Description: as §1, §2, §3, §4, §5, §6, §7, §8

Assay [3] relates to P-selectin. Briefly: Flow cytometric assay: inhibition of P-selectin-IgG binding to HL-60 cells. The assay is classed as cell-based, human. Also noted: unit of the concentration uncertain. On the procedure:
The interaction of P-selectin and its cellular ligand was studied using a flow cytometric assay (Erbe, D. V. et al., J. Cell Biol. (1993) 120:1227). HL60 cells (maintained in high glucose DME plus 10% Hyclone FBS) were used in this assay. Before staining with P-selectin-IgG the cells were preincubated in Dulbecco's PBS/1% BSA/0.1% sodium azide/1% normal rabbit serum (staining medium) for 30-60 mins on ice. After this initial incubation, 1 μg of P-selectin-IgG was added to 100 μl aliquots of 10^6 cells and incubated for 30-60 mins on ice. The cells were when washed with staining medium and resuspended in 100 μl of staining medium to which was added 2 μl of a phycoerythrin-conjugated F(ab')^2 goat anti-human IgG (Fc specific). The cells were incubated for 15-30 mins on ice, washed twice with staining medium, and resuspended in 0.5 ml of staining medium before flow cytometric analysis on a FACScan (Becton Dickinson & Co., Mountain View, Calif.). To determine that the staining was an interaction of P-selectin with its ligand, the staining was also done in the presence of 10 mM EGTA. To determine the protease sensitivity and the requirement for sialic acid of this interaction, HL-60 cells in D-PBS and 1% BSA were incubated with either trypsin or Arthrobacter or Clostridium sialidases at 37° C. before resuspending in staining medium. To examine the ability of various carbohydrates to inhibit staining, 50 μg/ml fucoidin (Sigma Immunochemicals, St. Louis, Mo.), 50 μg/ml dextran sulfate (Pharmacia Fine Chemicals, Piscataway, N.J.), 10 mg/ml mannose-1-phosphate (Sigma Immunochemicals), or 10 mg/ml mannose-6-phosphate (Sigma Immunochemicals) was added to cells immediately before the addition of the P-selectin chimera. Each carbohydrate was then present until the cells were washed before the addition of the second stage antibody. A potential complication of this FACS assay arose from the use of selectin-IgG chimeras to stain cells which bear human IgG Fc receptors (FcγR; Fanger, M. W., et al., Immunol. Today (1989) 10:92). Adding rabbit IgG (in the form of normal rabbit serum) to the assay medium blocked this binding in most cases.
For orientation: In flow cytometry, cells or beads pass a laser one at a time.

Some results are limits rather than exact numbers.

For the compound `CC(OCCCCCCOC1O[C@@H](C)[C@@H](O)[C@@H](O)[C@@H]1O)C(=O)O` (stereo partly drawn) [Compound 10, 1-O-(α-β-L-Fucopyranosyl)-6-O-[(R,S)-1-Carboxyethyl]-Hexane], the results for the IC50 in the assay with P-selectin [1], with L-selectin and in the assay with E-selectin were around 500 µM, 2000 to 3000 µM and 2000 to 3000 µM, respectively. In assay [2], the “inhibit neutrophil migration into the peritoneum” value is “inhibit neutrophil migration into the peritoneum”. In addition, the “inhibition of L-selectin binding to 2,3 sLe^x glycolipid” value in the assay on L-selectin (FIG. 5 and FIG. 6, result in words) is given as “at all four concentrations of the compound tested there is significant inhibitory activity”.

As for `C[C@@H]1O[C@@H](OCCCCCCOS(=O)(=O)O)[C@@H](O)[C@H](O)[C@@H]1O` [Compound 77, 6-O-sulfo-hexanyl-α-L-fucopyranoside], the “Inhibition (%) of P-selectin-IgG binding to HL-60 cells” value with P-selectin [3] (10 (unit uncertain)) came out at 50%; in the assay on P-selectin [3] (100 (unit uncertain)) it was 50%; with P-selectin [3] (200 (unit uncertain)), 60%. In addition, the IC50 in the assay with P-selectin [1] is around 500 µM; with L-selectin, 2000 to 3000 µM; in the assay with E-selectin, 2000 to 3000 µM.

Turning to `C[C@@H]1O[C@@H](CCOc2ccccc2C(=O)O)[C@@H](O)[C@H](O)[C@@H]1O` [Compound 68, 1-Deoxy-1-α-(o-Carboxy-Phenoxyethyl)-L-Fucose], the figures for the IC50 in the assay with P-selectin [1], in the assay on L-selectin and in the assay with E-selectin were below 500 µM, above 4000 µM and around 4000 µM, respectively.

As for `C[C@@H]1O[C@@H](CCOc2cccc(C(=O)O)c2)[C@@H](O)[C@H](O)[C@@H]1O` [Compound 69, 1-Deoxy-1-α-(m-Carboxy-Phenoxyethyl)-L-Fucose], the 50% inhibitory concentration (IC50) in the assay on P-selectin [1], in the assay with L-selectin and with E-selectin was above 4000 µM in each case.

Turning to `COc1ccc(-c2c(C(=O)O)oc3cc(OCC[C@@H]4O[C@@H](C)[C@@H](O)[C@@H](O)[C@@H]4O)cc(O)c3c2=O)cc1` [Compound 54, 2-Carboxy-5-Hydroxy-7-(1-Deoxy-1-α-Fucosyl-Ethyleneoxy)-4-Methoxy Isoflavone], the IC50 with P-selectin [1] is below 500 µM; with L-selectin, above 4000 µM; in the assay with E-selectin it was below 500 µM.

Turning to `COC(=O)C(C)c1ccc2cc(OCC[C@@H]3O[C@@H](C)[C@@H](OC(C)=O)[C@@H](OC(C)=O)[C@@H]3OC(C)=O)ccc2c1` (some centres unmarked) [Compound 60], the IC50 in the assay with P-selectin [1] is above 2000 µM; with L-selectin it was 4000 µM; in the assay with E-selectin, above 4000 µM.

Take `C[C@@H]1O[C@@H](CCOc2ccc3cc(C(=O)O)ccc3c2)[C@@H](O)[C@H](O)[C@@H]1O` [Compound 51, 1-Deoxy-1-α-(2-Carboxy-Naphthyl-6-Oxyethyl)-L-Fucose]: the IC50 with P-selectin [1] is below 500 µM; in the assay on L-selectin it was below 1000 µM; in the assay on E-selectin, below 500 µM.

In general, IC50 refers to the concentration that gives 50% inhibition.
